Test results published in ChEMBL document CHEMBL3885881, “DrugMatrix”.

Species: Rattus norvegicus
Assay: DrugMatrix - Regimen: Daily Repeat
Type: toxicity, organism-based, Sprague-Dawley
Parameters: regimen Daily Repeat, gender Male, age 6-8 weeks
Settings: in vivo, po, route oral GAVAGE, vehicle 100 % WATER; for ABSOLUTE BASOPHIL / ABSOLUTE EOSINOPHIL / ABSOLUTE LYMPHOCYTE / ABSOLUTE MONOCYTE / ABSOLUTE SEGMENTED NEUTROPHIL / BASOPHIL / EOSINOPHIL / ERYTHROCYTE COUNT / HEMATOCRIT / HEMOGLOBIN / LEUKOCYTE COUNT / LYMPHOCYTE / MEAN CORPUSCULAR HEMOGLOBIN / MEAN CORPUSCULAR HEMOGLOBIN CONCENTRATION / MEAN CORPUSCULAR VOLUME / MONOCYTE / NEUTROPHIL / NUCLEATED RED BLOOD CELLS / PLATELET COUNT: tissue Blood; for ALANINE AMINOTRANSFERASE / ALBUMIN / ALKALINE PHOSPHATASE / ASPARTATE AMINOTRANSFERASE / BLOOD UREA NITROGEN / CARBON DIOXIDE / CHLORIDE / CHOLESTEROL / CREATINE PHOSPHOKINASE / CREATININE / GLUCOSE / LACTATE DEHYDROGENASE / LIPASE / PHOSPHORUS / POTASSIUM / SODIUM / TOTAL BILIRUBIN / TOTAL PROTEIN / URIC ACID: tissue Plasma
[1] = 0 mg/kg, 72 h, dose level Control, time 3 day
[2] = 0 mg/kg, 120 h, dose level Control, time 5 day
[3] = 120 mg/kg, 72 h, dose level Low, time 3 day

Nc1ccc(S(=O)(=O)Nc2ccnn2-c2ccccc2)cc1 [SULFAPHENAZOLE]
ABSOLUTE BASOPHIL [1]: 0 CELLS/uL
ABSOLUTE EOSINOPHIL [1]: 20.17 CELLS/uL
ABSOLUTE LYMPHOCYTE [1]: 12371.67 CELLS/uL
ABSOLUTE MONOCYTE [1]: 166 CELLS/uL
ABSOLUTE SEGMENTED NEUTROPHIL [1]: 1292.17 CELLS/uL
BASOPHIL [1]: 0%
EOSINOPHIL [1]: 0.17%
ERYTHROCYTE COUNT [1]: 5.46 x10E6/uL
HEMATOCRIT [1]: 34.38%
HEMOGLOBIN [1]: 13.32 G/DL
LEUKOCYTE COUNT [1]: 13.85 x10E3/uL
LYMPHOCYTE [1]: 88.5%
MEAN CORPUSCULAR HEMOGLOBIN [1]: 24.42 pg
MEAN CORPUSCULAR HEMOGLOBIN CONCENTRATION [1]: 38.7 G/DL
MEAN CORPUSCULAR VOLUME [1]: 63.07 fL
MONOCYTE [1]: 1.17%
NEUTROPHIL [1]: 10.17%
NUCLEATED RED BLOOD CELLS [1]: 0.17 /100WBC
PLATELET COUNT [1]: 1193.5 x10E3/uL
ALANINE AMINOTRANSFERASE [1]: 54.5 u/L
ALBUMIN [1]: 4.02 G/DL
ALKALINE PHOSPHATASE [1]: 346.5 u/L
ASPARTATE AMINOTRANSFERASE [1]: 103.17 u/L
BLOOD UREA NITROGEN [1]: 16.5 mg/dL
CARBON DIOXIDE [1]: 29.83 mmol/L
CHLORIDE [1]: 99.5 MEQ/L
CHOLESTEROL [1]: 72.5 mg/dL
CREATINE PHOSPHOKINASE [1]: 532.5 u/L
CREATININE [1]: 0.18 mg/dL
GLUCOSE [1]: 168.5 mg/dL
LACTATE DEHYDROGENASE [1]: 536.5 u/L
LIPASE [1]: 11.17 u/L
PHOSPHORUS [1]: 11.48 mg/dL
POTASSIUM [1]: 5.95 MEQ/L
SODIUM [1]: 140.5 MEQ/L
TOTAL BILIRUBIN [1]: 0.18 mg/dL
TOTAL PROTEIN [1]: 5.77 G/DL
URIC ACID [1]: 1.42 mg/dL
ABSOLUTE BASOPHIL [2]: 0 CELLS/uL
ABSOLUTE EOSINOPHIL [2]: 22.83 CELLS/uL
ABSOLUTE LYMPHOCYTE [2]: 12202.83 CELLS/uL
ABSOLUTE MONOCYTE [2]: 158 CELLS/uL
ABSOLUTE SEGMENTED NEUTROPHIL [2]: 1283 CELLS/uL
BASOPHIL [2]: 0%
EOSINOPHIL [2]: 0.17%
ERYTHROCYTE COUNT [2]: 5.88 x10E6/uL
HEMATOCRIT [2]: 36.62%
HEMOGLOBIN [2]: 14.07 G/DL
LEUKOCYTE COUNT [2]: 13.67 x10E3/uL
LYMPHOCYTE [2]: 89.5%
MEAN CORPUSCULAR HEMOGLOBIN [2]: 23.95 pg
MEAN CORPUSCULAR HEMOGLOBIN CONCENTRATION [2]: 38.43 G/DL
MEAN CORPUSCULAR VOLUME [2]: 62.28 fL
MONOCYTE [2]: 1.17%
NEUTROPHIL [2]: 9.17%
NUCLEATED RED BLOOD CELLS [2]: 0.17 /100WBC
PLATELET COUNT [2]: 1198 x10E3/uL
ALANINE AMINOTRANSFERASE [2]: 51 u/L
ALBUMIN [2]: 4.3 G/DL
ALKALINE PHOSPHATASE [2]: 343 u/L
ASPARTATE AMINOTRANSFERASE [2]: 89.83 u/L
BLOOD UREA NITROGEN [2]: 17.67 mg/dL
CARBON DIOXIDE [2]: 27.17 mmol/L
CHLORIDE [2]: 98.33 MEQ/L
CHOLESTEROL [2]: 82.5 mg/dL
CREATINE PHOSPHOKINASE [2]: 533.33 u/L
CREATININE [2]: 0.18 mg/dL
GLUCOSE [2]: 152.67 mg/dL
LACTATE DEHYDROGENASE [2]: 220.33 u/L
LIPASE [2]: 11.5 u/L
PHOSPHORUS [2]: 11.25 mg/dL
POTASSIUM [2]: 6.29 MEQ/L
SODIUM [2]: 140.53 MEQ/L
TOTAL BILIRUBIN [2]: 0.22 mg/dL
TOTAL PROTEIN [2]: 6.12 G/DL
URIC ACID [2]: 1.42 mg/dL
ABSOLUTE BASOPHIL [3]: 0 CELLS/uL
ABSOLUTE EOSINOPHIL [3]: 0 CELLS/uL
ABSOLUTE LYMPHOCYTE [3]: 13809.67 CELLS/uL
ABSOLUTE MONOCYTE [3]: 111 CELLS/uL
ABSOLUTE SEGMENTED NEUTROPHIL [3]: 1579.33 CELLS/uL
BASOPHIL [3]: 0%
EOSINOPHIL [3]: 0%
ERYTHROCYTE COUNT [3]: 5.26 x10E6/uL
HEMATOCRIT [3]: 32.3%
HEMOGLOBIN [3]: 13 G/DL
LEUKOCYTE COUNT [3]: 15.5 x10E3/uL
LYMPHOCYTE [3]: 88.67%
MEAN CORPUSCULAR HEMOGLOBIN [3]: 24.77 pg
MEAN CORPUSCULAR HEMOGLOBIN CONCENTRATION [3]: 40.33 G/DL
MEAN CORPUSCULAR VOLUME [3]: 61.43 fL
MONOCYTE [3]: 0.67%
NEUTROPHIL [3]: 10.67%
NUCLEATED RED BLOOD CELLS [3]: 0 /100WBC
PLATELET COUNT [3]: 1150 x10E3/uL
ALANINE AMINOTRANSFERASE [3]: 66 u/L
ALBUMIN [3]: 3.9 G/DL
ALKALINE PHOSPHATASE [3]: 348.67 u/L
ASPARTATE AMINOTRANSFERASE [3]: 94.33 u/L
BLOOD UREA NITROGEN [3]: 14 mg/dL
CARBON DIOXIDE [3]: 29.33 mmol/L
CHLORIDE [3]: 97.67 MEQ/L
CHOLESTEROL [3]: 74.67 mg/dL
CREATINE PHOSPHOKINASE [3]: 287.67 u/L
CREATININE [3]: 0.15 mg/dL
GLUCOSE [3]: 149.33 mg/dL
LACTATE DEHYDROGENASE [3]: 195.67 u/L
LIPASE [3]: 10 u/L
PHOSPHORUS [3]: 11.53 mg/dL
POTASSIUM [3]: 6.01 MEQ/L
SODIUM [3]: 140.83 MEQ/L
TOTAL BILIRUBIN [3]: 0.17 mg/dL
TOTAL PROTEIN [3]: 5.63 G/DL
URIC ACID [3]: 1.33 mg/dL
